{
  "source": "patent US20250127863A1",
  "about": "“ANTIMICROBIAL PEPTIDE FOR ONYCHOMYCOSIS” (CBMR SCIENTIFIC NANOSCIENCE B.V., priority 2019, published 2025)",
  "key": {"C. metapsilosis": {"tested_on": "C. metapsilosis", "assay": "MIC90 growth inhibition", "type": "cell-based, Candida metapsilosis", "settings": "RPMI 1640 one-fourth strength", "procedure": "(§1) The minimum inhibitory concentration (MIC) value is defined as the lowest sample concentration that inhibited growth. In the Examples, the MIC90 value is presented, which MIC90 values are determined according to established methods known to the person with the skills in the relevant art. Experiments; 1×10E5 CFU of various strains/ml were incubated for 24-48 h at 37° C. in 4× diluted medium of RPMI 1640 with the indicated concentrations of antimicrobial peptide hLF(1-11) [SEQ ID NO: 3]. As controls various strains cells were incubated for 24-48 h at 37° C. with no agent (antimicrobial peptide), and subsequently, growth of the microbial organism (e.g. yeast, bacterium) was monitored by using spectrophotometry with a spectrophotometer at 620 nm. […] ND=Not done. Representative single assay data are listed rather than a range, for clarity reasons and for ease of comparison of peptide efficacy. The MIC was calculated as the lowest antibiotic (antimicrobial peptide) concentration at which growth of the assessed yeast or bacterium (microbe) was inhibited (inhibitory concentration IC90)."}, "Trichophyton spp": {"tested_on": "Trichophyton spp", "assay": "MIC90 growth inhibition, organisms related to onychomycosis", "type": "cell-based", "settings": "Trichophyton spp (Table 2); RPMI 1640 one-fourth strength", "procedure": "as §1"}, "[1]": {"tested_on": "Scopulariopsis breyicaulis", "assay": "MIC90 growth inhibition, organisms related to onychomycosis", "type": "cell-based", "settings": "RPMI 1640 one-fourth strength", "procedure": "as §1"}, "Hypercrealis spp": {"tested_on": "Hypercrealis spp", "assay": "MIC90 growth inhibition, organisms related to onychomycosis", "type": "cell-based", "settings": "RPMI 1640 one-fourth strength", "procedure": "as §1"}, "Epidermophyton spp": {"tested_on": "Epidermophyton spp", "assay": "MIC90 growth inhibition, organisms related to onychomycosis", "type": "cell-based", "settings": "RPMI 1640 one-fourth strength", "procedure": "as §1"}, "Candida albicans spp": {"tested_on": "Candida albicans spp", "assay": "MIC90 growth inhibition, organisms related to onychomycosis", "type": "cell-based", "settings": "RPMI 1640 one-fourth strength", "procedure": "as §1"}, "Malassezia spp": {"tested_on": "Malassezia spp", "assay": "MIC90 growth inhibition, organisms related to onychomycosis", "type": "cell-based", "settings": "RPMI 1640 one-fourth strength", "procedure": "as §1"}, "Microsporum spp": {"tested_on": "Microsporum spp", "assay": "MIC90 growth inhibition, organisms related to onychomycosis", "type": "cell-based", "settings": "RPMI 1640 one-fourth strength", "procedure": "as §1"}, "[2]": {"tested_on": "Trichophyton interdigitalis", "assay": "MIC90 growth inhibition, organisms related to onychomycosis", "type": "cell-based", "settings": "RPMI 1640 one-fourth strength", "procedure": "as §1"}, "onychomycosis [3]": {"tested_on": "onychomycosis", "assay": "Application of the composition by human subjects (Example 1)", "type": "in vivo", "procedure": "The concentration of the antimicrobial peptide in the composition used for the treatment of onychomycosis by human subjects, was 30 mg/l ([…]).\nThe composition used comprises the antimicrobial peptide hLF1-11 (GRRRRSVQWCA) [SEQ ID NO: 3] and is a clear colorless liquid in a (glass) bottle with a dropper to facilitate application to the nail. […] The antimicrobial peptide is completely biodegradable.\nThe composition is applied twice a day to the affected nail and cuticle, preferably in the morning and in the evening. Hold the tip of the dropper above the nail. Avoid direct contact between the dropper providing the solution and the infected nail to keep liquid clean. Squeeze the tube gently and drop the drop onto the cuticle/proximal fold. It is preferred to cover the whole nail with a thin layer of the solution. In particular cases it is important that the solution is also applied under the edge of the affected nail (on the distal nail bed) e.g. with a cotton swab, in particular when the infection started from there. Allow the nail to dry for a few minutes after application. The treatment duration varies depending on the severity of the infection; in many cases 3-6 months of treatment may be necessary. For optimal results, continue the treatment until a new healthy nail has fully grown. […] Reference is made to FIG. 1."}, "Phoma exigua": {"tested_on": "Phoma exigua", "assay": "IC50 growth inhibition", "type": "cell-based"}, "Candida parapsilosis": {"tested_on": "Candida parapsilosis", "type": "cell-based", "procedure": "as §1\nFor 3 patients A, B, C who were treated with the low concentration of antimicrobial peptide, and for which now clinical improvement was established, it was established that one patient presented with a positive culture (Candida parapsilosis). […] See also Tables 1-3 in Example 4, here below. […]"}, "C. lusitaniae CMC-1944": {"tested_on": "C. lusitaniae CMC-1944", "assay": "MIC90 growth inhibition", "type": "cell-based, Candida lusitaniae", "settings": "RPMI 1640 one-fourth strength", "procedure": "as §1"}, "Sclerotinia sclerotiorum": {"tested_on": "Sclerotinia sclerotiorum", "assay": "IC50 growth inhibition", "type": "cell-based"}, "Sclerotium rolfsii": {"tested_on": "Sclerotium rolfsii", "assay": "IC50 growth inhibition", "type": "cell-based"}, "Rhizoctonia solani": {"tested_on": "Rhizoctonia solani", "assay": "IC50 growth inhibition", "type": "cell-based"}, "[4]": {"tested_on": "C. guilliermondii CBS-2030", "assay": "MIC90 growth inhibition", "type": "cell-based, Candida guilliermondii", "settings": "RPMI 1640 one-fourth strength", "procedure": "as §1"}, "C. guilliermondii": {"tested_on": "C. guilliermondii", "assay": "MIC90 growth inhibition", "type": "cell-based, Candida guilliermondii", "settings": "RPMI 1640 one-fourth strength", "procedure": "as §1"}, "onychomycosis [5]": {"tested_on": "onychomycosis", "type": "in vivo, human", "settings": "for no results observed, number of patients: 3-5 months treatment of the fungal nail", "procedure": "The anti-fungal activity of the antimicrobial peptide hLF1-11 (GRRRRSVQWCA) [SEQ ID NO: 3] was tested in a clinical trial with human subjects who suffered from at least one nail apparently with onychomycosis.\nIn the clinical trial a total of 53 patients with different (severe) clinical signs of onychomycosis were included."}},
  "note": "Like-named read-outs stand apart in the source and are kept apart here. No end group written: not given here.",
  "data": [
    {"sequence": "GRRRRSVQWCA [hLF1-11, Gly Arg Arg Arg Arg Ser Val Gln Trp Cys Ala]", "values": [
      {"measurement": "Inhibitory concentration MIC (MIC90)", "setting": "C. metapsilosis", "result": "MIC = 25 μg/mL"},
      {"measurement": "Inhibitory concentration MIC (MIC90)", "setting": "Trichophyton spp", "result": "MIC = 6.3-50 μg/ml"},
      {"measurement": "Inhibitory concentration MIC (MIC90)", "setting": "[1]", "result": "MIC = 25-50 μg/mL"},
      {"measurement": "Inhibitory concentration MIC (MIC90)", "setting": "Hypercrealis spp", "result": "MIC = 25-50 μg/mL"},
      {"measurement": "Inhibitory concentration MIC (MIC90)", "setting": "Epidermophyton spp", "result": "MIC = 25-50 μg/mL"},
      {"measurement": "Inhibitory concentration MIC (MIC90)", "setting": "Candida albicans spp", "result": "MIC = 25-50 μg/mL"},
      {"measurement": "Inhibitory concentration MIC (MIC90)", "setting": "Malassezia spp", "result": "MIC = 12.5-50 μg/mL"},
      {"measurement": "Inhibitory concentration MIC (MIC90)", "setting": "Microsporum spp", "result": "MIC = 25-50 μg/mL"},
      {"measurement": "Inhibitory concentration MIC (MIC90)", "setting": "[2]", "result": "MIC = 25-50 μg/mL"},
      {"measurement": "recurrent infection in treated patients", "setting": "onychomycosis [3]; after 4 months or even longer", "result": "do not show signs of recurrent infection"},
      {"measurement": "time to first visible improvements", "setting": "onychomycosis [3]; twice daily application, 30 mg/l composition", "result": "two to four"},
      {"measurement": "Inhibitory concentration IC50", "setting": "Phoma exigua", "result": "IC50 = 821 μg/mL"},
      {"measurement": "MIC90 value", "setting": "Candida parapsilosis", "result": "25 to 50", "unit": "µg/mL"},
      {"measurement": "Inhibitory concentration MIC (MIC90)", "setting": "C. lusitaniae CMC-1944", "result": "MIC = 50 μg/mL"},
      {"measurement": "Inhibitory concentration IC50", "setting": "Sclerotinia sclerotiorum", "result": "IC50 = 31 μg/mL"},
      {"measurement": "Inhibitory concentration IC50", "setting": "Sclerotium rolfsii", "result": "IC50 = 231 μg/mL"},
      {"measurement": "Inhibitory concentration IC50", "setting": "Rhizoctonia solani", "result": "IC50 = 121 μg/mL"},
      {"measurement": "Inhibitory concentration MIC (MIC90)", "setting": "[4]", "result": "MIC = 50 μg/ml"},
      {"measurement": "Inhibitory concentration MIC (MIC90)", "setting": "C. guilliermondii", "result": "MIC = 5-40 μg/ml"},
      {"measurement": "effect in patients D, E who had shown no effect at the high concentration", "setting": "onychomycosis [5]; 100 mg/L, after 3 months of treatment", "result": "positive effect"},
      {"measurement": "time after which improvement was observed for the patients", "setting": "onychomycosis [5]; High concentration solution (33.3 mg/L)", "result": "3-6 months"},
      {"measurement": "positive effect of the treatment observed, number of patients", "setting": "onychomycosis [5]; Low concentrate (3.3 mg/L antimicrobial peptide) in aqueous acetic acid 0.01 volume %", "result": 18, "unit": "patients"},
      {"measurement": "time after which improvement was observed for the patients", "setting": "onychomycosis [5]; Low concentration solution (3.3 mg/L)", "result": "4-7 months"},
      {"measurement": "positive effect of the treatment observed, number of patients", "setting": "onychomycosis [5]; high concentrate (33.3 mg/L antimicrobial peptide) in aqueous acetic acid 0.01 volume %", "result": 22, "unit": "patients"},
      {"measurement": "no results observed, number of patients", "setting": "onychomycosis [5]; high concentration", "result": 2, "unit": "patients"},
      {"measurement": "adverse side effects (patients' remarks)", "setting": "onychomycosis [5]; human, in vivo", "result": "No adverse side effects"},
      {"measurement": "no results observed, number of patients", "setting": "onychomycosis [5]; low concentration", "result": 3, "unit": "patients"},
      {"measurement": "positive effect of the nail treatment", "setting": "onychomycosis [5]; panel of 53 patients, aqueous solution comprising the antimicrobial peptide", "result": 88.64, "unit": "%"},
      {"measurement": "patients with visual improvement of the nails", "setting": "onychomycosis [5]; patients in the clinical trial", "result": "more than 85%"},
      {"measurement": "positive result obtainable for all patients included in the clinical trial", "setting": "onychomycosis [5]; when the concentration of the antimicrobial peptide is 100 mg/L", "result": 100, "unit": "%"}
    ]}
  ]
}
